Measured values taken from patent publication US20090312396A1, “METHODS FOR CANCER TREATMENT USING TAK1 INHIBITORS” (AstraZeneca AB, priority 2006, published 2009).
Like-named read-outs stand apart in the source and are kept apart here.

Columns and labels:
[1] = system: KG1a; experiment: AlamarBlue proliferation assay, GI50; format: cell-based; conditions: Homo sapiens, KG-1a, 72 hours, Table 4, read-out: GI50 KG1a AML
Experimental: (§1) The TAK1 inhibitors are known in the art (see for example, WO 2003010158, WO 2003010163 and WO2004063186 the disclosures of which are incorporated by reference herein). All cell lines were plated at 10,000 cells/well in flat-bottomed 96 well plates and dosed with test compounds in triplicate over a 10 point dosing range from 0 to 30 μmolesL^−1. All cell lines were incubated with test compounds for a total of 72 hours. Background levels were determined for a control (undosed) plate within 2 hours of dosing test compounds. Following the dosing period, the extent of proliferation was measured by adding 1/10 (vol/vol) AlamarBlue reagent to every well and incubating the plates for a further 4 hours. The reaction was stopped by the addition of SDS to a final concentration of 0.1%. Fluorescence was measured at 545 nm (excitation) and 600 nm (emission). Growth inhibition 50 (GI50) values were determined for each test compound across the panel.

[2] = system: SUDHL4; experiment: AlamarBlue proliferation assay, GI50; format: cell-based; conditions: Homo sapiens, SU-DHL-4, 72 hours
Experimental: as §1

[3] = system: ARH77; experiment: AlamarBlue proliferation assay, GI50; format: cell-based; conditions: Homo sapiens, ARH-77, 72 hours
Experimental: as §1

[4] = system: MEC1; experiment: AlamarBlue proliferation assay, GI50; format: cell-based; conditions: Homo sapiens, 72 hours
Experimental: as §1

[5] = system: OCI-LY19; experiment: AlamarBlue proliferation assay, GI50; format: cell-based; conditions: Homo sapiens, 72 hours
Experimental: as §1

[6] = system: Jurkat; experiment: AlamarBlue proliferation assay, GI50; format: cell-based; conditions: Homo sapiens, 72 hours, Table 4, read-out: GI50 Jurkat T-ALL
Experimental: as §1

[7] = system: WSU-NHL; experiment: AlamarBlue proliferation assay, GI50; format: cell-based; conditions: Homo sapiens, 72 hours, Table 4, read-out: GI50 WSU-NHL B-NHL
Experimental: as §1

[8] = system: HEL92.1.7; experiment: AlamarBlue proliferation assay, GI50; format: cell-based; conditions: Homo sapiens, HEL 92.1.7, 72 hours, Table 4, read-out: GI50 HEL92.1.7 Erythroleukemia
Experimental: as §1

[9] = system: Karpas231; experiment: AlamarBlue proliferation assay, GI50; format: cell-based; conditions: Homo sapiens, 72 hours
Experimental: as §1

[10] = system: DOHH2; experiment: AlamarBlue proliferation assay, GI50; format: cell-based; conditions: Homo sapiens, DOHH-2, 72 hours
Experimental: as §1

[11] = biological target: T1, TAK1 (Homo sapiens, UniProt O43318); experiment: TAK1 enzyme inhibition; format: biochemical; conditions: Table 4; read-out: TAK1 pIC50 (enzyme) (converted)
T1 sequence (O43318 1-606): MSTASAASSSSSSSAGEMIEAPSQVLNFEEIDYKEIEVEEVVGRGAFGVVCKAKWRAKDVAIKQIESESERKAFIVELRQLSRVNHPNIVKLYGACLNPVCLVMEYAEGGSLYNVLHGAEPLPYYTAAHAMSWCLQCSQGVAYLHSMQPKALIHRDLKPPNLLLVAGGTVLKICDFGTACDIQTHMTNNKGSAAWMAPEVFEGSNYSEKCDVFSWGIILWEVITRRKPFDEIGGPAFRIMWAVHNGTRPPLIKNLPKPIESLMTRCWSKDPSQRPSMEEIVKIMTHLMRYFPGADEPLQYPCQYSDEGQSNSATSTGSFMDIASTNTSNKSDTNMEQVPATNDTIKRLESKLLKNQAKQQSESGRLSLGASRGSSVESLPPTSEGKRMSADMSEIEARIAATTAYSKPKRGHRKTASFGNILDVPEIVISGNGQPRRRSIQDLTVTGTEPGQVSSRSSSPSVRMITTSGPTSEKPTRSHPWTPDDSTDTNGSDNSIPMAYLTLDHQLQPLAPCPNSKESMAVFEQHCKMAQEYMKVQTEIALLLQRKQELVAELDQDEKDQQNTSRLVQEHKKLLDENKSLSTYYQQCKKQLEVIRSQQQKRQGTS
T1 sequence (Q15750 1-504 partner): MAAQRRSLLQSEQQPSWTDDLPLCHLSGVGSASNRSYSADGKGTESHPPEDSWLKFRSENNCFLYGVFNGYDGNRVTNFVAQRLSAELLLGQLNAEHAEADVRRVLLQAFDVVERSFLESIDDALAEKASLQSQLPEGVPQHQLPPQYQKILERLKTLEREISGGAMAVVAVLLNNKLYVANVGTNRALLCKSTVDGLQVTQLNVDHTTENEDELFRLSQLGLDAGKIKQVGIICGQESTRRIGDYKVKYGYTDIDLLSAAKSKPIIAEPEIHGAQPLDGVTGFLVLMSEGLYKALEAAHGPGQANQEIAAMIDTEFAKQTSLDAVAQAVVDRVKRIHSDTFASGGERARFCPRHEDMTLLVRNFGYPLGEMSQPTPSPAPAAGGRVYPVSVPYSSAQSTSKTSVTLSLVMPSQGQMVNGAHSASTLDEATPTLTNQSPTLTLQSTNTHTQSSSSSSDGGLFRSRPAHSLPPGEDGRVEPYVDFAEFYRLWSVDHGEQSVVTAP

[12] = system: Raji; experiment: AlamarBlue proliferation assay, GI50; format: cell-based, human; conditions: Homo sapiens, Raji, 72 hours, Table 4, read-out: GI50 Raji Burkitts Lymphoma
Experimental: as §1

[13] = system: AM0-1; experiment: AlamarBlue proliferation assay, GI50; format: cell-based; conditions: Homo sapiens, 72 hours, Table 8, read-out: GI50 AM0-1 plasmacytoma
Experimental: as §1
(§2) The experiments to generate the results for both Tables 5 and 6 were performed as described above.

[14] = system: IM-9; experiment: AlamarBlue proliferation assay, GI50; format: cell-based; conditions: Homo sapiens, 72 hours, Table 8, read-out: GI50 IM-9 B lymphoblastoid
Experimental: as §1, §2

[15] = system: JVM-3; experiment: AlamarBlue proliferation assay, GI50; format: cell-based; conditions: Homo sapiens, 72 hours, Table 7, read-out: GI50 JVM-3 B-PLL
Experimental: as §1, §2

[16] = system: L-363; experiment: AlamarBlue proliferation assay, GI50; format: cell-based; conditions: Homo sapiens, 72 hours, Table 8, read-out: GI50 L-363 plasma cell leukemia
Experimental: as §1, §2

[17] = system: WSU DLCL2; experiment: AlamarBlue proliferation assay, GI50; format: cell-based; conditions: Homo sapiens, WSUDLCL2, 72 hours, Table 7, read-out: GI50 WSU-DLCL B cell lymphoma
Experimental: as §1, §2

[18] = system: JEKO-1; experiment: AlamarBlue proliferation assay, GI50; format: cell-based; conditions: Homo sapiens, 72 hours, Table 7, read-out: GI50 JEKO-1 MCL
Experimental: as §1, §2

[19] = system: RPMI-8226; experiment: AlamarBlue proliferation assay, GI50; format: cell-based; conditions: Homo sapiens, 72 hours, Table 8, read-out: GI50 RPMI-8226 M.M
Experimental: as §1, §2

[20] = system: MOLP-8; experiment: AlamarBlue proliferation assay, GI50; format: cell-based; conditions: Homo sapiens, 72 hours, Table 8, read-out: GI50 MOLP-8 Multiple myeloma
Experimental: as §1, §2

[21] = system: JJN-3; experiment: AlamarBlue proliferation assay, GI50; format: cell-based; conditions: Homo sapiens, 72 hours, Table 8, read-out: GI50 JJN-3 plasma cell leukemia
Experimental: as §1, §2

[22] = system: Lymphoma cell lines carrying the t(14;18) chromosomal translocation; experiment: AlamarBlue proliferation assay, Example 2; format: cell-based; conditions: t(14;18) lymphoma cell lines, 72 hours, 0 to 30 μmoles/L, FIG. 3
Experimental: The chemical name of the compound is 3-[(aminocarbonyl)amino]-5-(4-{[4-(2-methoxyethyl)piperazin-1-yl]methyl}phenyl)thiophene-2-carboxamide.
More specifically, cell lines (OCI-LY19, DOHH2, Karpas231, WSU-NHL and SUDHL4 carry the t(14;18) translocation) were plated at 10,000 cells/well in flat-bottomed 96 well plates and dosed with test compounds in triplicate over a 10 point dosing range from 0 to 30 μmolesL^−1. All cell lines were incubated with test compounds for a total of 72 hours. Background levels were determined for a control (undosed) plate within 2 hours of dosing test compounds. Following the dosing period, the extent of proliferation was measured by adding 1/10 (vol/vol) AlamarBlue reagent to every well and incubating the plates for a further 4 hours. The reaction was stopped by the addition of SDS to a final concentration of 0.1%. Fluorescence was measured at 545 nm (excitation) and 600 nm (emission). GI50 values were determined for each test compound across the panel.

[23] = Table 4, read-out: GI50 SUDHL4 DLBCL
[24] = Table 4, read-out: GI50 ARH77 Plasma cell leukemia
[25] = Table 4, read-out: GI50 MEC1 B-CLL
[26] = Table 4, read-out: GI50 OCI-LY19 DLBCL
[27] = Table 4, read-out: GI50 Karpas231 B-ALL
[28] = Table 4, read-out: GI50 DOHH2 FL

| GI50 [2, 23] | GI50 [5, 26] | GI50 [6] | GI50 [9, 27] | IC50 [11] | GI50 [12] | SMILES | GI50 [1] | GI50 [3, 24] | GI50 [4, 25] | GI50 [7] | GI50 [8] | GI50 [10, 28] | also measured |
| --- | --- | --- | --- | --- | --- | --- | --- | --- | --- | --- | --- | --- | --- |
| 6.39 µM | 0.124 µM | 15.9 µM | 0.3 µM | 0.126 µM | 15.2 µM | NC(=O)Nc1sc(-c2ccc(CN3CCOCC3)cc2)cc1C(N)=O [Compound 1, 2-[(aminocarbonyl)amino]-5-[4-(morpholin-4-ylmethyl)phenyl]thiophene-3-carboxamide] | 0.45 µM | 1.17 µM | 1.34 µM | 0.37 µM | 0.73 µM | 0.127 µM |  |
| 2.42 µM | 0.005 µM | 4.39 µM | 0.14 µM | 0.0501 µM | 3.5 µM | CC(c1ccc(-c2cc(C(N)=O)c(NC(N)=O)s2)cc1)N1CCCCC1 (stereo not shown) [Compound 2, 2-[(aminocarbonyl)amino]-5-[4-(1-piperidin-1-ylethyl)phenyl]thiophene-3-carboxamide] | 0.4 µM | 0.25 µM | 0.16 µM | 0.25 µM | 0.17 µM | 0.014 µM |  |
| 2.72 µM | 0.085 µM | > 30 µM | 0.16 µM | 0.1 µM | > 30 µM | NC(=O)Nc1cc(-c2ccc(CN3CCOCC3)cc2)sc1C(N)=O [Compound 3, 3-[(aminocarbonyl)amino]-5-[4-(morpholin-4-ylmethyl)phenyl]thiophene-2-carboxamide] | 0.43 µM | 0.48 µM | 0.63 µM | 0.42 µM | 0.5 µM | 0.175 µM |  |
|  |  |  |  |  |  | COc1cc(O)c2c(c1)/C=C/C[C@H](O)[C@H](O)C(=O)/C=C\C[C@H](C)OC2=O [LL-Z-1640-2, (3S,5Z,8S,9S,11E)-8,9,16-trihydroxy-14-methoxy-3-methyl-3,4,9,10-tetrahydro-1H-2-benzoxacyclotetradecine-1,7(8H)-dione, reference compound] |  |  |  |  |  |  | GI50 ([2]; Table 7, read-out: GI50 SUDHL4 DLBCL): 1.64 µM; GI50 ([3]; Table 8, read-out: GI50 ARH-77 plasma cell leukemia): 1.24 µM; GI50 ([4]; Table 7, read-out: GI50 MEC1 B-CLL): 0.73 µM; GI50 ([5]; Table 7, read-out: GI50 OCI-LY19 DLBCL): 0.23 µM; GI50 ([9]; Table 7, read-out: GI50 KARPAS231 B-ALL): 0.95 µM; GI50 ([10]; Table 7, read-out: GI50 DOHH2 FL): 0.39 µM; GI50 [13]: 0.57 µM; GI50 [14]: 0.02 µM; GI50 [15]: 0.71 µM; GI50 [16]: ≥ 32.4 µM; GI50 [17]: 0.02 µM; GI50 [18]: 0.07 µM; GI50 [19]: 1.41 µM; GI50 [20]: 10.4 µM; GI50 [21]: ≥ 32.4 µM |
|  |  |  |  |  |  | COCCN1CCN(Cc2ccc(-c3cc(NC(N)=O)c(C(N)=O)s3)cc2)CC1 [TAK1 inhibitor, 3-[(aminocarbonyl)amino]-5-(4-{[4-(2-methoxyethyl)piperazin-1-yl]methyl}phenyl)thiophene-2-carboxamide] |  |  |  |  |  |  | sensitivity of cell lines to TAK1 inhibitor [22]: sensitive |
